Results from patent US9850283B2, “Macrocyclic inhibitors of the PD-1/PD-L1 and CD80(B7-1)/PD-L1 protein/protein interactions” (BRISTOL-MYERS SQUIBB COMPANY, priority 2013, dated 2017).
Positions of bridges follow the written chain, without caps; N, C: chain ends. Non-standard residues stand in square brackets, D forms with d. Residues, ends and D or L forms follow the SMILES beside them. ξ: configuration not given here. Bta = N[C@@H](Cc1csc2ccccc12)C(=O)O; Hyp = O=C(O)[C@@H]1C[C@@H](O)CN1; NMeNle = CCCC[C@H](NC)C(=O)O; NMeS = CN[C@@H](CO)C(=O)O; hSer = N[C@@H](CCO)C(=O)O; NMeA = CN[C@@H](C)C(=O)O; ξC = NC(CS)C(=O)O

What was measured:
[1] = molecular target: T1, LK35.2-hPD-L1 cells / PE-labeled PD-1-Ig (Homo sapiens, UniProt Q9NZQ7); assay: LK35.2-hPD-L1 cell binding high-content screening assay; assay type: cell-based; conditions: cell binding assay, cell line not given; cluster symbol; read-out: CBA IC50 cluster
T1 construct: expressed in transfected cells; host or cells: LK35.2 mouse B cell line
Method in brief: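 Mouse LK35.2 B cells stably overexpressing human PD-L1 were cultured overnight in RPMI with 10% FCS, then given compound and PE-labeled human PD-1-Ig (1 nM final) for 1 h at 37 °C. After three dPBS washes, bound fluorescence was quantified by high-content imaging.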

Human PD-L1/PD-1 = molecular target: T2, Human PD-L1/PD-1 (Homo sapiens, UniProt Q9NZQ7); assay: HTRF PD-1-Ig/PD-L1-His binding assay (human PD-L1); conditions: cluster symbol; read-out: HTRF IC50 cluster
T2 construct: made in house; host or cells: HEK293T
Method in brief: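 Soluble Fc-fused PD-1 and His-tagged PD-L1 (truncated before the transmembrane region) were combined in dPBS with 0.1% (w/v) BSA and 0.05% (v/v) Tween-20. Binding was read by HTRF using europium cryptate anti-Ig antibody (1 nM final) and APC anti-His antibody (20 nM final).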

T2 sequence (Q9NZQ7 with tags, fused parts or gaps): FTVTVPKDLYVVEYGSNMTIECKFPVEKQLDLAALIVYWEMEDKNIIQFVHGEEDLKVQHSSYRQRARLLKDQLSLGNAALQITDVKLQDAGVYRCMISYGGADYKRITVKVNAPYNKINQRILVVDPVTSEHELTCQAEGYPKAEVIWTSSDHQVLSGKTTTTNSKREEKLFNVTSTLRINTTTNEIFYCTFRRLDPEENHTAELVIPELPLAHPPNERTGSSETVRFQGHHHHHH
T1 sequence (Q9NZQ7 19-290): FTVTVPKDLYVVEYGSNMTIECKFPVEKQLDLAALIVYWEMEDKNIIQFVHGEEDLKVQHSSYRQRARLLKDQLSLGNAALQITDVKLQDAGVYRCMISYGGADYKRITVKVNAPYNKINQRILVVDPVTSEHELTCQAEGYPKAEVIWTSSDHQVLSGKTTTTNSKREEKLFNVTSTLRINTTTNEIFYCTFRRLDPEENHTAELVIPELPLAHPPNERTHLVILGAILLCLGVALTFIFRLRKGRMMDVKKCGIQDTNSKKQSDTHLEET

| SMILES | IC50 [1] | IC50 (Human PD-L1/PD-1) |
| --- | --- | --- |
| CCCC[C@H]1C(=O)N(C)[C@@H](CCCC)C(=O)N[C@@H](CCCNC(=N)N)C(=O)NC(C(=O)NCC(N)=O)CSCC(=O)N[C@@H](Cc2ccc(O)cc2)C(=O)N(C)[C@@H](CO)C(=O)N[C@@H](CC(N)=O)C(=O)N2CCC[C@H]2C(=O)N[C@@H](Cc2cnc[nH]2)C(=O)N[C@@H](CC(C)C)C(=O)N2CCC[C@H]2C(=O)N[C@@H](Cc2c[nH]c3ccccc23)C(=O)N[C@@H](CO)C(=O)N[C@@H](Cc2c[nH]c3ccccc23)C(=O)N1C (stereo partly drawn) [Example 9038] ({CH2CO}-Y[NMeS]NPHLPWSW[NMeNle][NMeNle]R[ξC]G-NH2; thioether N-14) | 4.78 to 72.9 nM | 6.76 to 30.3 nM |
| CCCC[C@H]1C(=O)N(C)[C@@H](CCCC)C(=O)N[C@@H](CCCNC(=N)N)C(=O)NC(C(=O)NCC(N)=O)CSCC(=O)N[C@@H](Cc2ccc(O)cc2)C(=O)N(C)[C@@H](C)C(=O)N[C@@H](CC(N)=O)C(=O)N2CCC[C@H]2C(=O)N[C@@H](Cc2cnc[nH]2)C(=O)N[C@@H](CC(C)C)C(=O)N2CCC[C@H]2C(=O)N[C@@H](Cc2c[nH]c3ccccc23)C(=O)N[C@@H](CCO)C(=O)N[C@@H](Cc2c[nH]c3ccccc23)C(=O)N1C (stereo partly drawn) [Example 9047] ({CH2CO}-Y[NMeA]NPHLPW[hSer]W[NMeNle][NMeNle]R[ξC]G-NH2; thioether N-14) | 0.158 to 4.71 nM | 0.385 to 6.74 nM |
| CCCC[C@H]1C(=O)N(C)[C@@H](CCCC)C(=O)N[C@@H](CCCNC(=N)N)C(=O)NC(C(=O)NCC(N)=O)CSCC(=O)N[C@@H](Cc2ccc(O)cc2)C(=O)N(C)[C@@H](C)C(=O)N[C@@H](CC(N)=O)C(=O)N2CCC[C@H]2C(=O)N[C@@H](Cc2cnc[nH]2)C(=O)N[C@@H](CC(C)C)C(=O)N2C[C@H](O)C[C@H]2C(=O)N[C@@H](Cc2c[nH]c3ccccc23)C(=O)N[C@@H](CCO)C(=O)N[C@@H](Cc2csc3ccccc23)C(=O)N1C (stereo partly drawn) [Example 9048] ({CH2CO}-Y[NMeA]NPHL[Hyp]W[hSer][Bta][NMeNle][NMeNle]R[ξC]G-NH2; thioether N-14) | 0.158 to 4.71 nM | 0.385 to 6.74 nM |
| CCCC[C@H]1C(=O)N(C)[C@@H](CCCC)C(=O)N[C@@H](CCCNC(=N)N)C(=O)NC(C(=O)NCC(N)=O)CSCC(=O)N[C@@H](Cc2ccc(O)cc2)C(=O)N(C)[C@@H](C)C(=O)N[C@@H](CC(N)=O)C(=O)N2CCC[C@H]2C(=O)N[C@@H](Cc2cnc[nH]2)C(=O)N[C@@H](CC(C)C)C(=O)N2C[C@H](O)C[C@H]2C(=O)N[C@@H](Cc2c[nH]c3ccccc23)C(=O)N[C@@H](CCO)C(=O)N[C@@H](Cc2c[nH]c3ccccc23)C(=O)N1C (stereo partly drawn) [Example 9049] ({CH2CO}-Y[NMeA]NPHL[Hyp]W[hSer]W[NMeNle][NMeNle]R[ξC]G-NH2; thioether N-14) | 0.158 to 4.71 nM | 0.385 to 6.74 nM |
| CCCC[C@H]1C(=O)N(C)[C@@H](CCCC)C(=O)N[C@@H](CCCNC(=N)N)C(=O)NC(C(=O)NCC(N)=O)CSCC(=O)N[C@@H](Cc2ccc(O)cc2)C(=O)N(C)[C@@H](C)C(=O)N[C@@H](CC(N)=O)C(=O)N2CCC[C@H]2C(=O)N[C@@H](Cc2cnc[nH]2)C(=O)N[C@@H](CCO)C(=O)N2C[C@H](O)C[C@H]2C(=O)N[C@@H](Cc2c[nH]c3ccccc23)C(=O)N[C@@H](CO)C(=O)N[C@@H](Cc2csc3ccccc23)C(=O)N1C (stereo partly drawn) [Example 9050] ({CH2CO}-Y[NMeA]NPH[hSer][Hyp]WS[Bta][NMeNle][NMeNle]R[ξC]G-NH2; thioether N-14) | > 74.3 nM | 0.385 to 6.74 nM |
| CCCC[C@H]1C(=O)N(C)[C@@H](CCCC)C(=O)N[C@@H](CCCNC(=N)N)C(=O)NC(C(=O)NCC(N)=O)CSCC(=O)N[C@@H](Cc2ccc(O)cc2)C(=O)N(C)[C@@H](C)C(=O)N[C@@H](CC(N)=O)C(=O)N2CCC[C@H]2C(=O)N[C@@H](Cc2cnc[nH]2)C(=O)N[C@@H](CCO)C(=O)N2C[C@H](O)C[C@H]2C(=O)N[C@@H](Cc2c[nH]c3ccccc23)C(=O)N[C@@H](CO)C(=O)N[C@@H](Cc2c[nH]c3ccccc23)C(=O)N1C (stereo partly drawn) [Example 9051] ({CH2CO}-Y[NMeA]NPH[hSer][Hyp]WSW[NMeNle][NMeNle]R[ξC]G-NH2; thioether N-14) | 0.158 to 4.71 nM | 6.76 to 30.3 nM |
| CCCC[C@H]1C(=O)N(C)[C@@H](CCCC)C(=O)N[C@@H](CCCNC(=N)N)C(=O)NC(C(=O)NCC(N)=O)CSCC(=O)N[C@@H](Cc2ccc(O)cc2)C(=O)N(C)[C@@H](C)C(=O)N[C@@H](CC(N)=O)C(=O)N2CCC[C@H]2C(=O)N[C@@H](Cc2cnc[nH]2)C(=O)N[C@@H](CC(C)C)C(=O)N2CCC[C@H]2C(=O)N[C@@H](Cc2c[nH]c3ccccc23)C(=O)N[C@@H](CCO)C(=O)N[C@@H](Cc2csc3ccccc23)C(=O)N1C (stereo partly drawn) [Example 9052] ({CH2CO}-Y[NMeA]NPHLPW[hSer][Bta][NMeNle][NMeNle]R[ξC]G-NH2; thioether N-14) | 0.158 to 4.71 nM | 0.385 to 6.74 nM |

The remaining lines, values ahead:

| IC50 [1] | IC50 (Human PD-L1/PD-1) | SMILES |
| --- | --- | --- |
| 0.158 to 4.71 nM | 0.385 to 6.74 nM | CCCC[C@H]1C(=O)N(C)[C@@H](CCCC)C(=O)N[C@@H](CCCNC(=N)N)C(=O)NC(C(=O)NCC(N)=O)CSCC(=O)N[C@@H](Cc2ccc(O)cc2)C(=O)N(C)[C@@H](CO)C(=O)N[C@@H](CC(N)=O)C(=O)N2CCC[C@H]2C(=O)N[C@@H](Cc2cnc[nH]2)C(=O)N[C@@H](CC(C)C)C(=O)N2C[C@H](O)C[C@H]2C(=O)N[C@@H](Cc2c[nH]c3ccccc23)C(=O)N[C@@H](CO)C(=O)N[C@@H](Cc2csc3ccccc23)C(=O)N1C (stereo partly drawn) [Example 9039] ({CH2CO}-Y[NMeS]NPHL[Hyp]WS[Bta][NMeNle][NMeNle]R[ξC]G-NH2; thioether N-14) |
| 0.158 to 4.71 nM | 0.385 to 6.74 nM | CCCC[C@H]1C(=O)N(C)[C@@H](COCC)C(=O)N[C@@H](CCCNC(=N)N)C(=O)NC(C(=O)NCC(N)=O)CSCC(=O)N[C@@H](Cc2ccc(O)cc2)C(=O)N(C)[C@@H](C)C(=O)N[C@@H](CC(N)=O)C(=O)N2CCC[C@H]2C(=O)N[C@@H](Cc2cnc[nH]2)C(=O)N[C@@H](CC(C)C)C(=O)N2CCC[C@H]2C(=O)N[C@@H](Cc2c[nH]c3ccccc23)C(=O)N[C@@H](CO)C(=O)N[C@@H](Cc2csc3ccccc23)C(=O)N1C (stereo partly drawn) [Example 9040] ({CH2CO}-Y[NMeA]NPHLPWS[Bta][NMeNle][NMeS](Et)R[ξC]G-NH2; thioether N-14) |
| 0.158 to 4.71 nM | 0.385 to 6.74 nM | CCCC[C@H]1C(=O)N(C)[C@@H](COCC)C(=O)N[C@@H](CCCNC(=N)N)C(=O)NC(C(=O)NCC(N)=O)CSCC(=O)N[C@@H](Cc2ccc(O)cc2)C(=O)N(C)[C@@H](C)C(=O)N[C@@H](CC(N)=O)C(=O)N2CCC[C@H]2C(=O)N[C@@H](Cc2cnc[nH]2)C(=O)N[C@@H](CC(C)C)C(=O)N2CCC[C@H]2C(=O)N[C@@H](Cc2c[nH]c3ccccc23)C(=O)N[C@@H](CO)C(=O)N[C@@H](Cc2c[nH]c3ccccc23)C(=O)N1C (stereo partly drawn) [Example 9041] ({CH2CO}-Y[NMeA]NPHLPWSW[NMeNle][NMeS](Et)R[ξC]G-NH2; thioether N-14) |
| 0.158 to 4.71 nM | 0.385 to 6.74 nM | CCCC[C@H]1C(=O)N(C)[C@@H](COCC)C(=O)N[C@@H](CCCNC(=N)N)C(=O)NC(C(=O)NCC(N)=O)CSCC(=O)N[C@@H](Cc2ccc(O)cc2)C(=O)N(C)[C@@H](C)C(=O)N[C@@H](CC(N)=O)C(=O)N2CCC[C@H]2C(=O)N[C@@H](Cc2cnc[nH]2)C(=O)N[C@@H](CC(C)C)C(=O)N2C[C@H](O)C[C@H]2C(=O)N[C@@H](Cc2c[nH]c3ccccc23)C(=O)N[C@@H](CO)C(=O)N[C@@H](Cc2csc3ccccc23)C(=O)N1C (stereo partly drawn) [Example 9042] ({CH2CO}-Y[NMeA]NPHL[Hyp]WS[Bta][NMeNle][NMeS](Et)R[ξC]G-NH2; thioether N-14) |
| 0.158 to 4.71 nM | 0.385 to 6.74 nM | CCCC[C@H]1C(=O)N(C)[C@@H](COCC)C(=O)N[C@@H](CCCNC(=N)N)C(=O)NC(C(=O)NCC(N)=O)CSCC(=O)N[C@@H](Cc2ccc(O)cc2)C(=O)N(C)[C@@H](C)C(=O)N[C@@H](CC(N)=O)C(=O)N2CCC[C@H]2C(=O)N[C@@H](Cc2cnc[nH]2)C(=O)N[C@@H](CC(C)C)C(=O)N2C[C@H](O)C[C@H]2C(=O)N[C@@H](Cc2c[nH]c3ccccc23)C(=O)N[C@@H](CO)C(=O)N[C@@H](Cc2c[nH]c3ccccc23)C(=O)N1C (stereo partly drawn) [Example 9043] |
| 0.158 to 4.71 nM | 0.385 to 6.74 nM | CCCC[C@H]1C(=O)N(C)[C@@H](CO)C(=O)N[C@@H](CCCNC(=N)N)C(=O)NC(C(=O)NCC(N)=O)CSCC(=O)N[C@@H](Cc2ccc(O)cc2)C(=O)N(C)[C@@H](C)C(=O)N[C@@H](CC(N)=O)C(=O)N2CCC[C@H]2C(=O)N[C@@H](Cc2cnc[nH]2)C(=O)N[C@@H](CC(C)C)C(=O)N2CCC[C@H]2C(=O)N[C@@H](Cc2c[nH]c3ccccc23)C(=O)N[C@@H](CO)C(=O)N[C@@H](Cc2csc3ccccc23)C(=O)N1C (stereo partly drawn) [Example 9044] ({CH2CO}-Y[NMeA]NPHLPWS[Bta][NMeNle][NMeS]R[ξC]G-NH2; thioether N-14) |
| 0.158 to 4.71 nM | 0.385 to 6.74 nM | CCCC[C@H]1C(=O)N[C@@H](CCCNC(=N)N)C(=O)NC(C(=O)NCC(N)=O)CSCC(=O)N[C@@H](Cc2ccc(O)cc2)C(=O)N(C)[C@@H](C)C(=O)N[C@@H](CC(N)=O)C(=O)N2CCC[C@H]2C(=O)N[C@@H](Cc2cnc[nH]2)C(=O)N[C@@H](CC(C)C)C(=O)N2C[C@H](O)C[C@H]2C(=O)N[C@@H](Cc2c[nH]c3ccccc23)C(=O)N[C@@H](CO)C(=O)N[C@@H](Cc2csc3ccccc23)C(=O)N(C)[C@@H](COCC)C(=O)N1C (stereo partly drawn) [Example 9045] ({CH2CO}-Y[NMeA]NPHL[Hyp]WS[Bta][NMeS](Et)[NMeNle]R[ξC]G-NH2; thioether N-14) |
| 0.158 to 4.71 nM | 0.385 to 6.74 nM | CCCC[C@H]1C(=O)N[C@@H](CCCNC(=N)N)C(=O)NC(C(=O)NCC(N)=O)CSCC(=O)N[C@@H](Cc2ccc(O)cc2)C(=O)N(C)[C@@H](C)C(=O)N[C@@H](CC(N)=O)C(=O)N2CCC[C@H]2C(=O)N[C@@H](Cc2cnc[nH]2)C(=O)N[C@@H](CC(C)C)C(=O)N2C[C@H](O)C[C@H]2C(=O)N[C@@H](Cc2c[nH]c3ccccc23)C(=O)N[C@@H](CO)C(=O)N[C@@H](Cc2c[nH]c3ccccc23)C(=O)N(C)[C@@H](COCC)C(=O)N1C (stereo partly drawn) [Example 9046] |
